The values that follow come from US20100311714A1, “1H-IMIDAZO[4,5-c]QUINOLINONE COMPOUNDS” (priority 2009, published 2010).

Where only a bound is given, the exact number is not on record here.

The target of the first test is T1, PI3K beta (Homo sapiens, UniProt P42338).
T1 construct: for the full-length p110-b subunit are generated and fused by overlapping PCR; His tag (C); made in house; host or cells: baculovirus BV949; Tn5 (Trichoplusia ni) or TiniPro insect cells
T1 sequence (P42338 with tags, fused parts or gaps limits assumed): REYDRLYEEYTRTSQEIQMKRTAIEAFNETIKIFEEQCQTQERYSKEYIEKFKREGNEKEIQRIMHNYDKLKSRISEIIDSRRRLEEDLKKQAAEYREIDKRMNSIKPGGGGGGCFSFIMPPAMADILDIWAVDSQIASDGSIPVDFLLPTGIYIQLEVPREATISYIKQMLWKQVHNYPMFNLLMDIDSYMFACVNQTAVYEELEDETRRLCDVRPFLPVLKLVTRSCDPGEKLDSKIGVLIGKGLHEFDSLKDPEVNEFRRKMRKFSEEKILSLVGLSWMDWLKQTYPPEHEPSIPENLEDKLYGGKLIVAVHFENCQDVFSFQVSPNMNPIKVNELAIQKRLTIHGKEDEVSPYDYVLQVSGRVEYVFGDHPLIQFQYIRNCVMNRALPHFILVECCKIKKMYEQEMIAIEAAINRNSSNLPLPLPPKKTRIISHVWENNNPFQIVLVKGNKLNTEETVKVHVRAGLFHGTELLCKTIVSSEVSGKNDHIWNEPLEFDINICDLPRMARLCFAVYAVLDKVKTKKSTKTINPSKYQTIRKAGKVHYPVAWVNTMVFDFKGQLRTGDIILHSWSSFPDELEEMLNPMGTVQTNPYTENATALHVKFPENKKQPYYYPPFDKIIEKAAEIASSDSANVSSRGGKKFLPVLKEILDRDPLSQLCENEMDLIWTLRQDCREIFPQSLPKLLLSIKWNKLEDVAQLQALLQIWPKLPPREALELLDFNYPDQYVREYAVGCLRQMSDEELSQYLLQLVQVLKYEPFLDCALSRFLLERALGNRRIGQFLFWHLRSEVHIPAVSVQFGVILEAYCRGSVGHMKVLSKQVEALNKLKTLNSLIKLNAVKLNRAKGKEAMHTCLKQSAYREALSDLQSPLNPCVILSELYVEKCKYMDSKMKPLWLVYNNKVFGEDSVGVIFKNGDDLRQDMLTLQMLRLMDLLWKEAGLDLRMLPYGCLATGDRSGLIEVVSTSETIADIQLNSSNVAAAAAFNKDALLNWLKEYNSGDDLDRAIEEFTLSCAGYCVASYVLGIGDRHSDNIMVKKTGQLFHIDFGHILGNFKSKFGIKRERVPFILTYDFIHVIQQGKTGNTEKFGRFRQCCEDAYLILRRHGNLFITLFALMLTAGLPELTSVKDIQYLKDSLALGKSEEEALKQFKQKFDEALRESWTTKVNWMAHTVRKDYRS
Briefly: PI3K beta kinase assay (Kinase-Glo luminescence). The class given is biochemical. Conditions: read-out: EPK_PI3Kbeta/IC50. Put shortly: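 Kinase-Glo luminescence read out ATP left after a 60-min room-temperature reaction, started with ATP (1 μM final) on 25 nM His-tagged p85 iSH2–p110β (BV949) plus 10 μg/mL PI substrate in pH 7.5 Tris buffer. Percent inhibition at eight concentrations was fitted to a four-parameter logistic model for IC50.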
(In general: In Kinase-Glo more light means more ATP remaining.)
Take `CCOc1cc(-c2ccc3ncc4c(c3c2)n(-c2ccc(F)nc2C)c(=O)n4C)cnc1COC` [Example 7.5, 8-(5-Ethoxy-6-methoxymethyl-pyridin-3-yl)-1-(6-fluoro-2-methyl-pyridin-3-yl)-3-methyl-1,3-dihydro-imidazo[4,5-c]quinolin-2-one]: the IC50 was 152 nM.

Take `Cc1nc(F)ccc1-n1c(=O)n(C)c2cnc3ccc(-c4cncc(C(C)(C)O)c4)cc3c21` [Example 7.8, 1-(6-Fluoro-2-methyl-pyridin-3-yl)-8-[5-(1-hydroxy-1-methyl-ethyl)-pyridin-3-yl]-3-methyl-1,3-dihydro-imidazo[4,5-c]quinolin-2-one]: the IC50 was found to be 45 nM.

`Cc1nc(N2CCN(C)C(=O)C2)ccc1-n1c(=O)n(C)c2cnc3ccc(-c4cnc(N)c(C(F)(F)F)c4)cc3c21` [Example 21.1, 8-(6-Amino-5-trifluoromethyl-pyridin-3-yl)-3-methyl-1-[2-methyl-6-(4-methyl-3-oxo-piperazin-1-yl)-pyridin-3-yl]-1,3-dihydro-imidazo[4,5-c]quinolin-2-one]: the IC50 stood at 9 nM.

Turning to `CCOc1cc(-c2ccc3ncc4c(c3c2)n(-c2ccc(OCCOC)nc2C)c(=O)n4C)cnc1COC` [Example 22.1, 8-(5-Ethoxy-6-methoxymethyl-pyridin-3-yl)-1-[6-(2-methoxy-ethoxy)-2-methyl-pyridin-3-yl]-3-methyl-1,3-dihydro-imidazo[4,5-c]quinolin-2-one], the IC50 is 429 nM.

`Cc1nc(N2CCC2)ccc1-n1c(=O)n(C)c2cnc3ccc(-c4cncc(N5CCC5)c4)cc3c21` [Example 23.1, 1-(6-Azetidin-1-yl-2-methyl-pyridin-3-yl)-8-(5-azetidin-1-yl-pyridin-3-yl)-3-methyl-1,3-dihydro-imidazo[4,5-c]quinolin-2-one]: the IC50 worked out at 1160 nM.

In the case of `COCc1ncc(-c2ccc3ncc4c(c3c2)n(-c2ccc(N3CCC3)nc2C)c(=O)n4C)cc1OC(C)C` [Example 23.2, 1-(6-Azetidin-1-yl-2-methyl-pyridin-3-yl)-8-(5-isopropoxy-6-methoxymethyl-pyridin-3-yl)-3-methyl-1,3-dihydro-imidazo[4,5-c]quinolin-2-one], the IC50 was found to be 193 nM.

As to `Cc1nc(N2CCC2)ccc1-n1c(=O)n(C)c2cnc3ccc(-c4cncc(C(C)(C)O)c4)cc3c21` [Example 23.3, 1-(6-Azetidin-1-yl-2-methyl-pyridin-3-yl)-8-[5-(1-hydroxy-1-methyl-ethyl)-pyridin-3-yl]-3-methyl-1,3-dihydro-imidazo[4,5-c]quinolin-2-one], the IC50 turned out to be 19 nM.

Regarding `CNc1ccc(-c2ccc3ncc4c(c3c2)n(-c2ccc(N3CCC3)nc2C)c(=O)n4C)cn1` [Example 23.4, 1-(6-Azetidin-1-yl-2-methyl-pyridin-3-yl)-3-methyl-8-(6-methylamino-pyridin-3-yl)-1,3-dihydro-imidazo[4,5-c]quinolin-2-one], the IC50 came to 441 nM.

For `CCOc1cc(-c2ccc3ncc4c(c3c2)n(-c2ccc(N3CCC3)nc2C)c(=O)n4C)cnc1COC` [Example 23.5, 1-(6-Azetidin-1-yl-2-methyl-pyridin-3-yl)-8-(5-ethoxy-6-methoxymethyl-pyridin-3-yl)-3-methyl-1,3-dihydro-imidazo[4,5-c]quinolin-2-one], the IC50 came out at 208 nM.

Consider `COCc1ncc(-c2ccc3ncc4c(c3c2)n(-c2ccc(N3CCC3)nc2C)c(=O)n4C)cc1OC` [Example 23.6, 1-(6-Azetidin-1-yl-2-methyl-pyridin-3-yl)-8-(5-methoxy-6-methoxymethyl-pyridin-3-yl)-3-methyl-1,3-dihydro-imidazo[4,5-c]quinolin-2-one], for which the IC50 turned out to be 353 nM.

Consider `CCNc1cc(-c2ccc3ncc4c(c3c2)n(-c2ccc(N3CCC3)nc2C)c(=O)n4C)cnc1CO` [Example 23.8, 1-(6-Azetidin-1-yl-2-methyl-pyridin-3-yl)-8-(5-ethylamino-6-hydroxymethyl-pyridin-3-yl)-3-methyl-1,3-dihydro-imidazo[4,5-c]quinolin-2-one], for which the IC50 was found to be 36 nM.

For `Cc1nc(N2CCC2)ccc1-n1c(=O)n(C)c2cnc3ccc(-c4cncc(OC(C)C)c4)cc3c21` [Example 23.9, 1-(6-Azetidin-1-yl-2-methyl-pyridin-3-yl)-8-(5-isopropoxy-pyridin-3-yl)-3-methyl-1,3-dihydro-imidazo[4,5-c]quinolin-2-one], the IC50 came out at 171 nM.

Turning to `CNc1ncc(-c2ccc3ncc4c(c3c2)n(-c2ccc(N3CC(F)(F)C3)nc2C)c(=O)n4C)cn1` [Example 24.1, 1-[6-(3,3-Difluoro-azetidin-1-yl)-2-methyl-pyridin-3-yl]-3-methyl-8-(2-methylamino-pyrimidin-5-yl)-1,3-dihydro-imidazo[4,5-c]quinolin-2-one], the IC50 amounted to 1010 nM.

As for `CCOc1cc(-c2ccc3ncc4c(c3c2)n(-c2ccc(N3CCCC3)nc2C)c(=O)n4C)cnc1COC` [Example 25.2, 8-(5-Ethoxy-6-methoxymethyl-pyridin-3-yl)-3-methyl-1-(2-methyl-6-pyrrolidin-1-yl-pyridin-3-yl)-1,3-dihydro-imidazo[4,5-c]quinolin-2-one], the IC50 worked out at 291 nM.

With `Cc1nc(N2CCCC2)ccc1-n1c(=O)n(C)c2cnc3ccc(-c4cncc(C(C)(C)O)c4)cc3c21` [Example 25.3, 8-[5-(1-Hydroxy-1-methyl-ethyl)-pyridin-3-yl]-3-methyl-1-(2-methyl-6-pyrrolidin-1-yl-pyridin-3-yl)-1,3-dihydro-imidazo[4,5-c]quinolin-2-one], the IC50 was less than 3 nM.

Consider `Cc1nc(N(C)CCO)ccc1-n1c(=O)n(C)c2cnc3ccc(-c4cnc(N)c(C(F)(F)F)c4)cc3c21` [Example 26.1, 8-(6-Amino-5-trifluoromethyl-pyridin-3-yl)-1-{6-[(2-hydroxy-ethyl)-methyl-amino]-2-methyl-pyridin-3-yl}-3-methyl-1,3-dihydro-imidazo[4,5-c]quinolin-2-one], for which the IC50 is less than 3 nM.

For the compound `CNc1ncc(-c2ccc3ncc4c(c3c2)n(-c2ccc(N(C)CCO)nc2C)c(=O)n4C)cn1` [Example 26.2, 1-{6-[(2-Hydroxy-ethyl)-methyl-amino]-2-methyl-pyridin-3-yl}-3-methyl-8-(2-methylamino-pyrimidin-5-yl)-1,3-dihydro-imidazo[4,5-c]quinolin-2-one], the IC50 is 99 nM.

Turning to `CNc1ncc(-c2ccc3ncc4c(c3c2)n(-c2ccc(N3CCC(O)C3)nc2C)c(=O)n4C)cn1` (stereo not drawn) [Example 27.2, 1-[6-(3-Hydroxy-pyrrolidin-1-yl)-2-methyl-pyridin-3-yl]-3-methyl-8-(2-methylamino-pyrimidin-5-yl)-1,3-dihydro-imidazo[4,5-c]quinolin-2-one], the IC50 came to 124 nM.

In the case of `COC1CCN(c2ccc(-n3c(=O)n(C)c4cnc5ccc(-c6cncc(C(C)(C)O)c6)cc5c43)c(C)n2)C1` (stereo not drawn) [Example 28.1, 8-[5-(1-Hydroxy-1-methyl-ethyl)-pyridin-3-yl]-1-[6-(3-methoxy-pyrrolidin-1-yl)-2-methyl-pyridin-3-yl]-3-methyl-1,3-dihydro-imidazo[4,5-c]quinolin-2-one], the IC50 was found to be 48 nM.

Turning to `CCNc1cc(-c2ccc3ncc4c(c3c2)n(-c2ccc(N3CC(O)C3)nc2C)c(=O)n4C)cnc1CO` [Example 29.2, 8-(5-Ethylamino-6-hydroxymethyl-pyridin-3-yl)-1-[6-(3-hydroxy-azetidin-1-yl)-2-methyl-pyridin-3-yl]-3-methyl-1,3-dihydro-imidazo[4,5-c]quinolin-2-one], the IC50 is 677 nM.

For `CNc1ncc(-c2ccc3ncc4c(c3c2)n(-c2ccc(N3CC(O)C3)nc2C)c(=O)n4C)cc1F` [Example 29.3, 8-(5-Fluoro-6-methylamino-pyridin-3-yl)-1-[6-(3-hydroxy-azetidin-1-yl)-2-methyl-pyridin-3-yl]-3-methyl-1,3-dihydro-imidazo[4,5-c]quinolin-2-one], the IC50 was 301 nM.

Staying with this test, now noted: read-out: PI3Kbeta/IC50.
With `Cc1nc(F)ccc1-n1c(=O)n(C)c2cnc3ccc(-c4cnc(N)c(C(F)(F)F)c4)cc3c21` [Example 7.1, 8-(6-Amino-5-trifluoromethyl-pyridin-3-yl)-1-(6-fluoro-2-methyl-pyridin-3-yl)-3-methyl-1,3-dihydro-imidazo[4,5-c]quinolin-2-one], the IC50 turned out to be 7 nM.

For the compound `Cc1nc(F)ccc1-n1c(=O)n(C)c2cnc3ccc(-c4cnc5c(ccn5C)c4)cc3c21` [Example 7.2, 1-(6-Fluoro-2-methyl-pyridin-3-yl)-3-methyl-8-(1-methyl-1H-pyrrolo[2,3-b]pyridin-5-yl)-1,3-dihydro-imidazo[4,5-c]quinolin-2-one], the IC50 was 309 nM.

With `CCOc1ccc(-c2ccc3ncc4c(c3c2)n(-c2ccc(F)nc2C)c(=O)n4C)cn1` [Example 7.3, 8-(6-Ethoxy-pyridin-3-yl)-1-(6-fluoro-2-methyl-pyridin-3-yl)-3-methyl-1,3-dihydro-imidazo[4,5-c]quinolin-2-one], the IC50 was 452 nM.

Take `CNc1ccc(-c2ccc3ncc4c(c3c2)n(-c2ccc(F)nc2C)c(=O)n4C)cn1` [Example 7.4, 1-(6-Fluoro-2-methyl-pyridin-3-yl)-3-methyl-8-(6-methylamino-pyridin-3-yl)-1,3-dihydro-imidazo[4,5-c]quinolin-2-one]: the IC50 stood at 263 nM.

On to `CCOc1ccc(-c2ccc3ncc4c(c3c2)n(-c2ccc(N3CCNCC3)nc2OC)c(=O)n4C)cn1` [Example 9.1, 8-(6-Ethoxy-pyridin-3-yl)-1-(2-methoxy-6-piperazin-1-yl-pyridin-3-yl)-3-methyl-1,3-dihydro-imidazo[4,5-c]quinolin-2-one], for which the IC50 worked out at 267 nM.

As to `COc1nc(N2CCNCC2)ccc1-n1c(=O)n(C)c2cnc3ccc(-c4cnc(N)c(C(F)(F)F)c4)cc3c21` [Example 9.2, 8-(6-Amino-5-trifluoromethyl-pyridin-3-yl)-1-(2-methoxy-6-piperazin-1-yl-pyridin-3-yl)-3-methyl-1,3-dihydro-imidazo[4,5-c]quinolin-2-one], the IC50 came out at 36 nM.
